From US20260191849A1, “PHARMACEUTICAL COMPOSITION FOR TREATMENT OF CANCER” (WIGEN BIOMEDICINE TECHNOLOGY (SHANGHAI) CO., LTD., priority 2022, published 2026)
Like-named read-outs stand apart in the source and are kept apart here.

What was measured:
Type in all cases: cell-based
HT29 cells [1] = assay: Combined use of compound 257 or AMG650 with PLK1 inhibitor on HT29 cell viability, 168 h (Biological Example 7); conditions: for Maximum inhibition rate / Minimum inhibition rate / IC50: HT29 cells; for IC50: Homo sapiens, HT-29, 168 h
Experimental: (§1) HT29 cells were seeded on a 384-well plate at 3000 cells/well. After overnight adherence culture, DMSO or compound 257 or AMG650 serially diluted in a 1:5 ratio from 400 nM and a PLK1 inhibitor with a specified concentration were added. The cell viability was assessed 168 h after dosing by measuring the intracellular ATP content. The inhibition percentages of viable cells by the compounds were calculated by comparing with the DMSO group, and the IC50 values were also calculated.

HCT116 cells [2] = assay: Combined use of compound 257 or AMG650 with PLK1 inhibitor on HCT116 cell viability, 168 h (Biological Example 8)
Experimental: as §1, with “HCT116” for “HT29”, “10 μM” for “400 nM”

HT29 cells [3] = assay: Combined use of compound 257 or AMG650 with PLK1 inhibitor (Volasertib) on HT29 cell viability, 168 h (Biological Example 22); conditions: for IC50: Homo sapiens, HT-29, 168 h
Experimental: (§2) HT29 cells were seeded on a 384-well plate at 3000 cells/well. After overnight adherence culture, DMSO or compound 257 or AMG650 serially diluted in a 1:5 ratio from 400 nM and a PLK1 inhibitor with a specified concentration were added. The cell viability was assessed 168 h after dosing by measuring the intracellular ATP content. […] Furthermore, interactions between the drugs were also analyzed using the BLISS independence model, and the results are shown in FIG. 15 and FIG. 16.

HCT116 cells [4] = assay: Combined use of compound 257, AMG650 or Compound A with PLK1 inhibitor on HCT116 cell viability, 168 h (Biological Example 20)
Experimental: as §1, with “HCT116” for “HT29”, “257, AMG650,” for “257”, “Compound A” for “AMG650”

SK-OV-3 cells = assay: Combined use of compound 257 or AMG650 with PLK1 inhibitor on SK-OV-3 cell viability, 168 h (Biological Example 21); conditions: for IC50: Homo sapiens, SK-OV-3, 168 h
Experimental: as §2, with “SK—OV-3” for “HT29”, “11” for “15”, “12.” for “16.”

HT29 cells [5] = assay: Combined use of compound 257, AMG650 or Compound A with PLK1 inhibitor on HT29 cell viability, 168 h (Biological Example 19); conditions: for IC50: Homo sapiens, HT-29, 168 h, HT29 cells, read-out: IC50
Experimental: HT29 cells were seeded on a 384-well plate at 3000 cells/well.

Compound: Cc1cc(NC(=O)c2ccc(NS(=O)(=O)CCO)cc2N2CCC3(CC2)CC3)nc(N2CCC(F)(F)CC2)n1 [AMG650]
- Maximum inhibition rate (HT29 cells [1]; Volasertib 0 nM): 96.5%
- Minimum inhibition rate (HT29 cells [1]; Volasertib 0 nM): −1.4%
- Maximum inhibition rate (HT29 cells [1]; Volasertib 3.12 nM): 95.8%
- Minimum inhibition rate (HT29 cells [1]; Volasertib 3.12 nM): 3.3%
- Maximum inhibition rate (HT29 cells [1]; Volasertib 6.25 nM): 97.0%
- Minimum inhibition rate (HT29 cells [1]; Volasertib 6.25 nM): −0.4%
- IC50 (HT29 cells [1]; Volasertib 0 nM): 84.4 nM
- IC50 (HT29 cells [1]; Volasertib 3.12 nM): 26.6 nM
- IC50 (HT29 cells [1]; Volasertib 6.25 nM): 16.4 nM
- inhibitory effect on HT-29 cells, combined use with the PLK1 inhibitor compared with monotherapy (HT29 cells [1]; Volasertib, in words): stronger inhibitory effect
- IC50 (HCT116 cells [2]; HCT116 cells, Volasertib 3.12 nM): > 10000 nM
- IC50 (HCT116 cells [2]; HCT116 cells, Volasertib 6.25 nM): > 10000 nM
- IC50 (HCT116 cells [2]; Homo sapiens, HCT-116, HCT116 cells, Volasertib 0 nM): > 10000 nM
- synergistic effect on HCT116 cell viability, combined use with the PLK1 inhibitor (HCT116 cells [2]; Volasertib, in words): no significant synergistic effect
- anti-proliferative activity against HCT116 cells, monotherapy (HCT116 cells [2]; in words): did not exhibit anti-proliferative activity
- inhibitory effect on HT-29 cells, combined use with the PLK1 inhibitor compared with monotherapy (HT29 cells [3]; 168 h, Volasertib, in words): stronger inhibitory effect
- IC50 (HT29 cells [3]): 30.2 nM
- IC50 (HT29 cells [3]; HT29 cells, 168 h, Volasertib 0.0001 nM, read-out: IC50): 79.9 nM
- IC50 (HT29 cells [3]; HT29 cells, 168 h, Volasertib 3.13 nM, read-out: IC50): 43 nM
- IC50 (HT29 cells [3]; HT29 cells, 168 h, Volasertib 12.5 nM, read-out: IC50): 14.2 nM
- IC50 (HT29 cells [3]; HT29 cells, 168 h, Volasertib 25 nM, read-out: IC50): 5.9 nM
- synergistic effect on HCT116 cell viability, combined use with the PLK1 inhibitor (HCT116 cells [4]; CYC140 or TAK-960, in words): no significant synergistic effect
- IC50 (HCT116 cells [4]; HCT116 cells, CYC140 (Plogosertib) 1.6 nM): > 400 nM
- IC50 (HCT116 cells [4]; HCT116 cells, CYC140 (Plogosertib) 8 nM): > 400 nM
- IC50 (HCT116 cells [4]; HCT116 cells, CYC140 (Plogosertib) 40 nM): > 400 nM
- IC50 (HCT116 cells [4]; HCT116 cells, TAK-960 0 nM): > 400 nM
- IC50 (HCT116 cells [4]; HCT116 cells, TAK-960 1.6 nM): > 400 nM
- IC50 (HCT116 cells [4]; HCT116 cells, TAK-960 8 nM): > 400 nM
- IC50 (HCT116 cells [4]; HCT116 cells, TAK-960 40 nM): > 400 nM
- IC50 (HCT116 cells [4]; Homo sapiens, HCT-116, HCT116 cells, CYC140 (Plogosertib) 0 nM): > 400 nM
- anti-proliferative activity against HCT116 cells, monotherapy (HCT116 cells [4]; in words): did not exhibit anti-proliferative activity
- inhibitory effect on SK-OV-3 cells, combined use with the PLK1 inhibitor compared with monotherapy (SK-OV-3 cells; 168 h, Volasertib, in words): stronger inhibitory effect
- IC50 (SK-OV-3 cells): 66 nM
- IC50 (SK-OV-3 cells; SK-OV-3 cells, 168 h, Volasertib 0.0001 nM, read-out: IC50): 72.2 nM
- IC50 (SK-OV-3 cells; SK-OV-3 cells, 168 h, Volasertib 6.25 nM, read-out: IC50): 51.7 nM
- IC50 (SK-OV-3 cells; SK-OV-3 cells, 168 h, Volasertib 12.5 nM, read-out: IC50): 34.5 nM
- IC50 (SK-OV-3 cells; SK-OV-3 cells, 168 h, Volasertib 25 nM, read-out: IC50): 27.1 nM
- IC50 (SK-OV-3 cells; SK-OV-3 cells, 168 h, Volasertib 50 nM, read-out: IC50): 11.2 nM
- inhibitory effect on HT-29 cells, combined use with the PLK1 inhibitor compared with monotherapy (HT29 cells [5]; CYC140 or TAK-960, in words): stronger inhibitory effect
- IC50 (HT29 cells [5]; CYC140 (Plogosertib) 0.0001 nM): 91.8 nM
- IC50 (HT29 cells [5]; CYC140 (Plogosertib) 1.6 nM): 74.4 nM
- IC50 (HT29 cells [5]; CYC140 (Plogosertib) 8 nM): 50.6 nM
- IC50 (HT29 cells [5]; CYC140 (Plogosertib) 40 nM): 11.1 nM
- IC50 (HT29 cells [5]; TAK-960 0.0001 nM): 88.9 nM
- IC50 (HT29 cells [5]; TAK-960 1.6 nM): 58.6 nM
- IC50 (HT29 cells [5]; TAK-960 8 nM): 16.5 nM
- IC50 (HT29 cells [5]; TAK-960 40 nM): 16.1 nM
